Consider 13 compounds from patent US20150005281A1, “PYRIMIDINE-2,4-DIAMINE DERIVATIVES AS KINASE INHIBITORS” (Cellzome Limited, priority 2011, published 2015).

The IC50 is the concentration needed to halve the response being measured.

For assay [1] the following is noted: Changelian et al., 2003; cited from earlier work.
The target of the next assay is T1, JAK3 (Homo sapiens, UniProt P52333).
T1 construct: endogenous in cells; host or cells: Molt4 (ATCC CRL-1582) and Ramos (ATCC CRL-1596) cells; mixed lysate 1:2
T1 sequence (P52333 1-1124): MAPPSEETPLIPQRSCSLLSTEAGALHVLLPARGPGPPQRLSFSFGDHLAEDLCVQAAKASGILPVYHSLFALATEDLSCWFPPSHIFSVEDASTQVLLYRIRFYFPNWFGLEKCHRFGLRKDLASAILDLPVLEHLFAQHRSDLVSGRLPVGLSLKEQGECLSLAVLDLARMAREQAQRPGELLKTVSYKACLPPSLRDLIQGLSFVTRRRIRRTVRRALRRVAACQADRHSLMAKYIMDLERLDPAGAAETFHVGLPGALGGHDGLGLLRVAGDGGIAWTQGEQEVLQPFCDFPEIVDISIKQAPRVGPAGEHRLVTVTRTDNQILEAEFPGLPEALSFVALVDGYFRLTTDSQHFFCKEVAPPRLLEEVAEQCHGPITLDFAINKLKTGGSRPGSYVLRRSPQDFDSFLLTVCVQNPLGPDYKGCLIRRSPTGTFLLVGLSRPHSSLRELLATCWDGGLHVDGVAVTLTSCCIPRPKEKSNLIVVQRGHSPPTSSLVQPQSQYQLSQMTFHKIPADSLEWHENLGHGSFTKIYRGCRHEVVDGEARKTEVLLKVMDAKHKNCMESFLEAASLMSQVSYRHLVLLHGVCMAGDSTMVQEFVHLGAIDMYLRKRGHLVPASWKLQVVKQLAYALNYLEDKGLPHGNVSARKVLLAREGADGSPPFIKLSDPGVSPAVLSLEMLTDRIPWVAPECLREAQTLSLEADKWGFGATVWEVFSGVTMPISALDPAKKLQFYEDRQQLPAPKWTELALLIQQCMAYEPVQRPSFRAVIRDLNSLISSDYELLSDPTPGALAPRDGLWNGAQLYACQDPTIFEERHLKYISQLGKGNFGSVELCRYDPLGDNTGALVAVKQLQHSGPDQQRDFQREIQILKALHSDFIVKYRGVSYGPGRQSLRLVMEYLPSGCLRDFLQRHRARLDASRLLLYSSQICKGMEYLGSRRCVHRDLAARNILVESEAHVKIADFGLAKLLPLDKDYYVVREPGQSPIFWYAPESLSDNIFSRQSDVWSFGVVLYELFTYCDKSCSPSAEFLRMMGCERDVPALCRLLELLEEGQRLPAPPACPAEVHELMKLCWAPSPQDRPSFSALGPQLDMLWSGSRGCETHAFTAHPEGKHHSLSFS
Briefly: Kinobeads assay with immunodetection, JAK3. In kind it is binding. As to conditions: for IC50: Kinobeads assay, mixed Molt4/Ramos lysate, read-out: Inhibition values (IC50) JAK3. A digest of the protocol:
(§1)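 Molt4 plus Ramos lysate (1:2), 10 mg/mL, mixed with compound dilutions (1:3 series from 5 mM DMSO stock) and kinobeads; 3 h, cold room. Bead-bound JAKs eluted, dot blot immunodetection, IC50 from dose-response.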

The target of the next assay is T2, JAK1 (Homo sapiens, UniProt P23458).
T2 construct: endogenous in cells; host or cells: Molt4 (ATCC CRL-1582) and Ramos (ATCC CRL-1596) cells; mixed lysate 1:2
T2 sequence (P23458 whole entry): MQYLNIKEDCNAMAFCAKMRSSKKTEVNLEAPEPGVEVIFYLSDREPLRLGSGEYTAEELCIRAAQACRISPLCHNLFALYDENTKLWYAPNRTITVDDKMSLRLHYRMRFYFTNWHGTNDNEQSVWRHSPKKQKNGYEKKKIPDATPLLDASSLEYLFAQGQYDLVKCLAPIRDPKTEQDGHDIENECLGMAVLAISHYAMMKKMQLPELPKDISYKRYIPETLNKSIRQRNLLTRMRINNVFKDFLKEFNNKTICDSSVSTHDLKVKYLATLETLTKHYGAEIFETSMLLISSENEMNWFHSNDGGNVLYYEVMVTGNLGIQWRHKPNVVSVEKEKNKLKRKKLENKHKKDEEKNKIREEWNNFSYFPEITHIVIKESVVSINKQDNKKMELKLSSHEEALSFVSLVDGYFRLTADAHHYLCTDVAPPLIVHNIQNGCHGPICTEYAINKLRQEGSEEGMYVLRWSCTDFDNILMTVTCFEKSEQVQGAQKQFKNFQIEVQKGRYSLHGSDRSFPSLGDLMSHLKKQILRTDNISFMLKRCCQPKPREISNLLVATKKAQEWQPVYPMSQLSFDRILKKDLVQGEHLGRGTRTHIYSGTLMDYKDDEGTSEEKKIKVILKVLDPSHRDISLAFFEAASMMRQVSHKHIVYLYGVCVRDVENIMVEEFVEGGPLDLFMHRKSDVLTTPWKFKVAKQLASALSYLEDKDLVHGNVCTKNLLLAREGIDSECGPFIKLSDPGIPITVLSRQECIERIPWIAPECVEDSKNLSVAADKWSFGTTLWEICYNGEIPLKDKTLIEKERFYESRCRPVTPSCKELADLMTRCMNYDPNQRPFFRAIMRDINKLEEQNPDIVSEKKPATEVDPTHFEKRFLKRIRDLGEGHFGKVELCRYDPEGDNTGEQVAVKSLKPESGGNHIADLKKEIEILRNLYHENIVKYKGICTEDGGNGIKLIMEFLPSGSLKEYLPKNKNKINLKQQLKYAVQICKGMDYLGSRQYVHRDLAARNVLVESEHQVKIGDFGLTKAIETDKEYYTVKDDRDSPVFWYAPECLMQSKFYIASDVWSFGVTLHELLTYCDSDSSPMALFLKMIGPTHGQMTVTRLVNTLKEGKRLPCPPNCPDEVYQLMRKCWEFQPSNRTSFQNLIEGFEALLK
Briefly: Kinobeads assay with immunodetection, JAK1. The class given is binding. As to conditions: for IC50: Kinobeads assay, mixed Molt4/Ramos lysate, read-out: Inhibition values (IC50) JAK1. A digest of the protocol:
as §1

A further assay has as its target T3, TYK2 (Homo sapiens, UniProt P29597).
T3 construct: endogenous in cells; host or cells: Molt4 (ATCC CRL-1582) and Ramos (ATCC CRL-1596) cells; mixed lysate 1:2
Description: Kinobeads assay with immunodetection, TYK2. The settings on record: Kinobeads assay, mixed Molt4/Ramos lysate; read-out: Inhibition values (IC50) Tyk2. The class given is binding. A digest of the protocol: as §1

The target in the next assay is T4, JAK2 (Homo sapiens, UniProt O60674).
T4 construct: endogenous in cells; host or cells: Molt4 (ATCC CRL-1582) and Ramos (ATCC CRL-1596) cells; mixed lysate 1:2
T4 sequence (O60674 whole entry): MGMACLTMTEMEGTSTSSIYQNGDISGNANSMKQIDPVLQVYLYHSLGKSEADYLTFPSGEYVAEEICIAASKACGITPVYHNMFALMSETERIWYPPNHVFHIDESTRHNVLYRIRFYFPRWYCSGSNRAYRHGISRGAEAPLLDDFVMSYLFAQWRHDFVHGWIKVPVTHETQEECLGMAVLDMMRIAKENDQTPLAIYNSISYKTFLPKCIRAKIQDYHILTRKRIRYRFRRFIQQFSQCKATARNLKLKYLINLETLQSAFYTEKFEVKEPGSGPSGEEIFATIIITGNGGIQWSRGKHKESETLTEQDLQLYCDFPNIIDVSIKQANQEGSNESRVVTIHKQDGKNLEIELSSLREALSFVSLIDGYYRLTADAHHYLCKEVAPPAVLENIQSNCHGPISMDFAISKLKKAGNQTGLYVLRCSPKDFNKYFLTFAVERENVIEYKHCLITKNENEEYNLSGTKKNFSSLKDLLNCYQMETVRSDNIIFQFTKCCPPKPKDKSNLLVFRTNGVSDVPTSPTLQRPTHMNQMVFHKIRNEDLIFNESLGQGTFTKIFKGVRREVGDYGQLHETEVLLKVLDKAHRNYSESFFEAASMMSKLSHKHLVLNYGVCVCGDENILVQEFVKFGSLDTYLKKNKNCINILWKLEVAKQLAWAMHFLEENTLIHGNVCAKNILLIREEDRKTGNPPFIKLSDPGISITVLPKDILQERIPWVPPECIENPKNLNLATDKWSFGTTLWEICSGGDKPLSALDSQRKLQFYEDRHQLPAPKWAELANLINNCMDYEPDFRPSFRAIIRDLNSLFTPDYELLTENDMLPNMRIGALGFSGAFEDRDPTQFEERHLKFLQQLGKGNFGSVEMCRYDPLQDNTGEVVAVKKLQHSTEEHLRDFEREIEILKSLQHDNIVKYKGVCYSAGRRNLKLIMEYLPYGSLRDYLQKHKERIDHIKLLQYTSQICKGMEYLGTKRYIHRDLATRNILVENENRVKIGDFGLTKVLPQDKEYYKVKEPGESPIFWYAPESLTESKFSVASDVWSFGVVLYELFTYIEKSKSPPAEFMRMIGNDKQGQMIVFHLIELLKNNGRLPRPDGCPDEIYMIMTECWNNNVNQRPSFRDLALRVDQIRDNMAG
Description: Kinobeads assay with immunodetection, JAK2. The class given is binding. As to conditions: mixed Molt4/Ramos lysate, read-out: Inhibition values (IC50) JAK2. The gist of the method:
as §1

For assay [2] the following is noted: NOD mouse; cited from earlier work.
The conditions of assay [3]: Cetkovic-Cvrlje and Ucken, 2004; cited from earlier work.

SMILES strings stand for the structures.

T3 sequence (P29597 whole entry): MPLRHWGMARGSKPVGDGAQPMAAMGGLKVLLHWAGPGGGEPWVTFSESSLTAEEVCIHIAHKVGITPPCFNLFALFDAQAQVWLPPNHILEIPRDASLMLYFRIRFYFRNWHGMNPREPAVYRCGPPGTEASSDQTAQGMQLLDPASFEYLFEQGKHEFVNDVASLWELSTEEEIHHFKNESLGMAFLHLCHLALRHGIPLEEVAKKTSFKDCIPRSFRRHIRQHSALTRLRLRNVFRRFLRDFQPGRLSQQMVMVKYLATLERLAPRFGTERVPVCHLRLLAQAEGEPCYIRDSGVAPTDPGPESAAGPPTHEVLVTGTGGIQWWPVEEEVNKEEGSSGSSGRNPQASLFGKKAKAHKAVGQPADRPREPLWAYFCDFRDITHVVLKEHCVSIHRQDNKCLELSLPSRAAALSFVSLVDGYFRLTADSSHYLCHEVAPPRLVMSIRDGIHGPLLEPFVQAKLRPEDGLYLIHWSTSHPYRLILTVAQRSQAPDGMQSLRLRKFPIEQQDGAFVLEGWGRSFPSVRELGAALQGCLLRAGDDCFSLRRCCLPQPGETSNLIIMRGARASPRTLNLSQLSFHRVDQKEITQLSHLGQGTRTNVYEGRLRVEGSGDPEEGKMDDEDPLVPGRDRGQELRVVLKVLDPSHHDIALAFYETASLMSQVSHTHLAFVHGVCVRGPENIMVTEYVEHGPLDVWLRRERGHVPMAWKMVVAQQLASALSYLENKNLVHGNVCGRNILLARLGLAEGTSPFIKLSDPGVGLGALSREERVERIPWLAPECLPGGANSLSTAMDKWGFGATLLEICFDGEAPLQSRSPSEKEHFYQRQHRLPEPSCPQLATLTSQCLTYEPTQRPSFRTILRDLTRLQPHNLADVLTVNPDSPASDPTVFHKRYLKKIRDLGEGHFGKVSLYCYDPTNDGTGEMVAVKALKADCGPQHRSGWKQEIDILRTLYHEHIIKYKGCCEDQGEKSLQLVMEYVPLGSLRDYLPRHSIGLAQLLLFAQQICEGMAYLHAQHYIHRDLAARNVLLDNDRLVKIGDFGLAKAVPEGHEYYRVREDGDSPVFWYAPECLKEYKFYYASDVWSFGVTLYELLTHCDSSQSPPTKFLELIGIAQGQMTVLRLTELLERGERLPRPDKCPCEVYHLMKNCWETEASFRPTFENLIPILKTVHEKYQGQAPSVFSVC

In the case of `C[C@@H]1CCN(C(=O)CC#N)C[C@@H]1N(C)c1ncnc2[nH]ccc12` [CP-690,550], the “efficacy in organ transplantation model” value in assay [1] was “efficacy”.

For the compound `Cc1cnc(Nc2cnn(CC(F)F)c2)nc1NC[C@H]1CCN(C(=O)CC#N)C1` [Example 129, (R)-3-(3-(((2-((1-(2,2-difluoroethyl)-1H-pyrazol-4-yl)amino)-5-methylpyrimidin-4-yl)amino)methyl)pyrrolidin-1-yl)-3-oxopropanenitrile], the IC50 on JAK3 is 0.1 to 1 µM; at JAK1, below 0.1 µM; on TYK2, below 0.1 µM; at JAK2, 1 to 10 µM. Also, on JAK1, the “Selectivity ratio over JAK2, JAK1” value was “JAK1 = 139”.

For the compound `Cc1cnc(Nc2cnn(CC(F)F)c2)nc1NC[C@H]1CCN(C(=O)CCC#N)C1` [Example 130, (R)-4-(3-(((2-((1-(2,2-difluoroethyl)-1H-pyrazol-4-yl)amino)-5-methylpyrimidin-4-yl)amino)methyl)pyrrolidin-1-yl)-4-oxobutanenitrile], the IC50 on JAK3 was 0.1 to 1 µM; on JAK1, below 0.1 µM; at TYK2 it was below 0.1 µM; at JAK2 it was 0.1 to 1 µM. In addition, the “Selectivity ratio over JAK2, JAK1” value at JAK1 is listed as “JAK1 = 143”.

As for `Cn1cc(Nc2ncc(Cl)c(NC[C@H]3CCCN3CC#N)n2)cn1` [Example 131, (R)-2-(2-(((5-chloro-2-((1-methyl-1H-pyrazol-4-yl)amino)pyrimidin-4-yl)amino)methyl)pyrrolidin-1-yl)acetonitrile], the “Selectivity ratio over JAK2, JAK3” value on JAK3 is listed as “JAK3 = 85”. Also, the IC50 at JAK3 is below 0.1 µM; at JAK1 it was below 0.1 µM; at TYK2 it was below 0.1 µM; on JAK2 it was 0.1 to 1 µM.

As for `Cn1cc(Nc2ncc(Cl)c(NC[C@@H]3C[C@H](F)CN3CCCS(C)(=O)=O)n2)cn1` [Example 132, 5-chloro-N^4-(((2S,4S)-4-fluoro-1-(3-(methylsulfonyl)propyl)pyrrolidin-2-yl)methyl)-N^2-(1-methyl-1H-pyrazol-4-yl)pyrimidine-2,4-diamine], the IC50 is 0.1 to 1 µM on JAK3, below 0.1 µM at JAK1, below 0.1 µM at TYK2 and 1 to 10 µM on JAK2. Also, at JAK1, the “Selectivity ratio over JAK2, JAK1” value is recorded as “JAK1 = 100”.

With `Cn1cc(Nc2ncc(Cl)c(NC[C@@H]3C[C@H](F)CN3CCCC#N)n2)cn1` [Example 133, 4-((2S,4S)-2-(((5-chloro-2-((1-methyl-1H-pyrazol-4-yl)amino)pyrimidin-4-yl)amino)methyl)-4-fluoropyrrolidin-1-yl)butanenitrile], the IC50 at JAK3, on JAK1, at TYK2 and at JAK2 was below 0.1 µM in each case. The “Selectivity ratio over JAK2, JAK1” value at JAK1 is listed as “JAK1 = 19”.

`Cn1cc(Nc2ncc(Cl)c(NCC3CCCN(C(=O)CC#N)C3)n2)cn1` (stereo not shown) [Example 134, 3-(3-(((5-chloro-2-((1-methyl-1H-pyrazol-4-yl)amino)pyrimidin-4-yl)amino)methyl)piperidin-1-yl)-3-oxopropanenitrile]: the “Selectivity ratio over JAK2, JAK3” value on JAK3 is “JAK3 = 32”. Also, the half-inhibitory concentration (IC50) at JAK3 was below 0.1 µM; on JAK1, below 0.1 µM; on TYK2, below 0.1 µM; on JAK2, 0.1 to 1 µM.

On to `Cn1cc(Nc2ncc(Cl)c(NC[C@@H]3CCCN(C(=O)CC#N)C3)n2)cn1` [Example 135, (S)-3-(3-(((5-chloro-2-((1-methyl-1H-pyrazol-4-yl)amino)pyrimidin-4-yl)amino)methyl)piperidin-1-yl)-3-oxopropanenitrile], for which the “Selectivity ratio over JAK2, JAK3” value at JAK3 was “JAK3 = 40”. Besides, the IC50 on JAK3 is below 0.1 µM; on JAK1 it was below 0.1 µM; on TYK2 it was below 0.1 µM; at JAK2 it was 0.1 to 1 µM.

Consider `Cn1cc(Nc2ncc(Cl)c(NC[C@@H]3CCCN(C(=O)CCC#N)C3)n2)cn1` [Example 136, (S)-4-(3-(((5-chloro-2-((1-methyl-1H-pyrazol-4-yl)amino)pyrimidin-4-yl)amino)methyl)piperidin-1-yl)-4-oxobutanenitrile], for which, on JAK3, the “Selectivity ratio over JAK2, JAK3” value is “JAK3 = 78”. In addition, the IC50 was below 0.1 µM at JAK3, 0.1 to 1 µM on JAK1, 0.1 to 1 µM at TYK2 and 0.1 to 1 µM on JAK2.

For the compound `Cn1cc(Nc2ncc(Cl)c(NC[C@H]3CCCN(C(=O)CC#N)C3)n2)cn1` [Example 137, (R)-3-(3-(((5-chloro-2-((1-methyl-1H-pyrazol-4-yl)amino)pyrimidin-4-yl)amino)methyl)piperidin-1-yl)-3-oxopropanenitrile], the “Selectivity ratio over JAK2, JAK3” value on JAK3 is given as “JAK3 = 33”. Further, the IC50 was below 0.1 µM on JAK3, below 0.1 µM at JAK1, below 0.1 µM on TYK2 and 0.1 to 1 µM at JAK2.

As for `Cn1cc(Nc2ncc(Cl)c(NC[C@H]3CCCN(C(=O)CCC#N)C3)n2)cn1` [Example 138, (R)-4-(3-(((5-chloro-2-((1-methyl-1H-pyrazol-4-yl)amino)pyrimidin-4-yl)amino)methyl)piperidin-1-yl)-4-oxobutanenitrile], on JAK3, the “Selectivity ratio over JAK2, JAK3” value is given as “JAK3 = 23”. The IC50 was below 0.1 µM on JAK3, below 0.1 µM at JAK1, below 0.1 µM on TYK2 and 0.1 to 1 µM on JAK2.

As to `CC(C)S(=O)(=O)CCN1CCC[C@@H]1CNc1nc(Nc2cnn(C)c2)ncc1Cl` [Example 139, (R)-5-chloro-N^4-((1-(2-(isopropylsulfonyl)ethyl)pyrrolidin-2-yl)methyl)-N^2-(1-methyl-1H-pyrazol-4-yl)pyrimidine-2,4-diamine], the “Selectivity ratio over JAK2, JAK3” value on JAK3 is reported as “JAK3 = 83”. Further, the IC50 was below 0.1 µM at JAK3, below 0.1 µM at JAK1, 0.1 to 1 µM at TYK2 and 1 to 10 µM on JAK2.

As to `COc1cc2ncnc(Nc3ccc(O)cc3)c2cc1OC` [JANEX-1], in assay [2], the “spontaneous autoimmune diabetes development” value was “prevent spontaneous autoimmune diabetes development”. The “severity of GVHD” value in assay [3] was “attenuate the severity of GVHD”.
